{
  "source": "ChEMBL document CHEMBL1909514",
  "about": "“Imidazo[2,1-b]thiazole guanylhydrazones as RSK2 inhibitors” (Eur J Med Chem, 2011)",
  "format_in_all_cases": "functional",
  "key": {"T47D": {"tested_on": "T47D", "experiment": "Growth inhibition of human T47D cells after 48 hrs by SRB assay"}, "SK-OV-3": {"tested_on": "SK-OV-3", "experiment": "Growth inhibition of human SKOV3 cells after 48 hrs by SRB assay", "conditions": "SK-OV-3, 48 h"}, "CCRF-CEM": {"tested_on": "CCRF-CEM", "experiment": "Growth inhibition of human CCRF-CEM cells after 48 hrs by SRB assay"}, "[1]": {"conditions": "read-out: pLC50 (the source's name) (converted)"}},
  "data": [
    {"compound": "N=C(N)N/N=C\\c1c(-c2ccc([N+](=O)[O-])cc2)nc2sc(Br)cn12", "values": [
      {"measurement": "GI50", "setting": "T47D", "result": 0.17, "unit": "µM"},
      {"measurement": "TGI", "setting": "T47D; read-out: pTGI (converted)", "result": 3.63, "unit": "µM"},
      {"measurement": "GI50", "setting": "SK-OV-3", "result": 0.148, "unit": "µM"},
      {"measurement": "CC50", "setting": "SK-OV-3; [1]", "result": 5.62, "unit": "µM"},
      {"measurement": "TGI", "setting": "SK-OV-3; read-out: pTGI (converted)", "result": 4.47, "unit": "µM"},
      {"measurement": "GI50", "setting": "CCRF-CEM", "result": 0.102, "unit": "µM"},
      {"measurement": "CC50", "setting": "CCRF-CEM; [1]", "result": "> 100", "unit": "µM"}
    ]}
  ]
}
